SMILES strings stand for the structures.

The target of data set [1] is T1, Human serum albumin (HSA) (Homo sapiens, UniProt P02768).
T1 construct: Fatty acid free HSA and warfarin sodium were purchased from Sigma-Aldrich; purchased Sigma-Aldrich (St. Louis, MO, USA)
As to the kind of experiment: Binding constants by quenching of HSA tryptophan fluorescence. As to conditions: for K ± S.D. (binding constant): 6 μM HSA, pH 7.4, 25 °C, excitation 295 nm, 1:1 binding model. As for the experimental part:
In all experiments, the final co-solvent concentration was held below 5%. This was done to prevent conformational changes of HSA due to changes in dielectric constant of the solvent.
Steady-state fluorescence was recorded using a thermostated Safas Xenius fluorometer (Safas Monaco, Monaco) with an integrated stirrer. All studies were performed at 25 ± 1 °C using 10 nm excitation and emission slit widths. […] Measurements were performed in duplicate.
A stock solution of a single ligand was gradually added via syringe to a 2 mL of a 6 μM HSA solution placed in a quartz cell. Measurements were conducted at the excitation wavelength of 295 nm and emission was recorded in the 310–400 nm range enabling calculations of corresponding binding constants. […] Binding constants were determined according to Dufour and Dangles. A Scatchard analysis was performed assuming n identical binding sites on HSA. Values for binding constant (K), molar fluorescence intensity of the complex (f), and the stoichiometric coefficient (n) were estimated by fitting the F vs. Lt curves against Equations (1) and (2) using a least-square regression program Scientist (MicroMath, Salt Lake City, UT, USA), where F is fluorescence intensity, [L] the free ligand concentration, [Lt] the total ligand concentration, and c the total albumin concentration. […] In all cases, the inner filter effect was taken into account by using absorption of free ligands at excitation and emission wavelengths (εex and εem, respectively) (Equation (3)), where Fcorr is the fluorescence corrected for the inner filter effect, F0 is the measured fluorescence, ε is the sum of εex and εem, l = 0.65 is the optical path and c is the flavonoid concentration. (1) Fcorr=fcnK[L]/1+K[L] (2) [Lt]=[L](1+ncK/1+K[L]) (3) F0=Fcorr×10^−εlc

A short description of data set [2]: Flavonoid fluorescence in buffer solution without HSA.
For data set [3], the target named is Human serum albumin (HSA) IIA binding site (Homo sapiens, UniProt P02768). As to the kind of experiment: Flavonoid fluorescence (excitation 450 nm) on HSA pre-saturated with warfarin (simultaneous binding / displacement). As for the experimental part:
HSA was freshly dissolved in Dulbecco’s phosphate-buffered saline pH 7.4 (137 mM sodium chloride, 2.7 mM potassium chloride, 8.1 mM disodium hydrogen phosphate, 1.47 mM potassium dihydrogen phosphate) immediately before measurements. […]. In all experiments, the final co-solvent concentration was held below 5%. This was done to prevent conformational changes of HSA due to changes in dielectric constant of the solvent.
Steady-state fluorescence was recorded using a thermostated Safas Xenius fluorometer (Safas Monaco, Monaco) with an integrated stirrer. All studies were performed at 25 ± 1 °C using 10 nm excitation and emission slit widths. […] Higher concentrations of HSA and ligands were not used due to poor solubility of ligands and high influence of ligand absorption. Measurements were performed in duplicate.

The test system of data set [4] is HSA. The conditions noted are these: of its intensity without warfarin; cited from earlier work.
Data set [5] deals with HSA. The conditions noted are these: cited from earlier work.
[6] abbreviates: HSA 0-92% saturated with warfarin.

Chain of Human serum albumin (HSA) IIA binding site (P02768 25-609): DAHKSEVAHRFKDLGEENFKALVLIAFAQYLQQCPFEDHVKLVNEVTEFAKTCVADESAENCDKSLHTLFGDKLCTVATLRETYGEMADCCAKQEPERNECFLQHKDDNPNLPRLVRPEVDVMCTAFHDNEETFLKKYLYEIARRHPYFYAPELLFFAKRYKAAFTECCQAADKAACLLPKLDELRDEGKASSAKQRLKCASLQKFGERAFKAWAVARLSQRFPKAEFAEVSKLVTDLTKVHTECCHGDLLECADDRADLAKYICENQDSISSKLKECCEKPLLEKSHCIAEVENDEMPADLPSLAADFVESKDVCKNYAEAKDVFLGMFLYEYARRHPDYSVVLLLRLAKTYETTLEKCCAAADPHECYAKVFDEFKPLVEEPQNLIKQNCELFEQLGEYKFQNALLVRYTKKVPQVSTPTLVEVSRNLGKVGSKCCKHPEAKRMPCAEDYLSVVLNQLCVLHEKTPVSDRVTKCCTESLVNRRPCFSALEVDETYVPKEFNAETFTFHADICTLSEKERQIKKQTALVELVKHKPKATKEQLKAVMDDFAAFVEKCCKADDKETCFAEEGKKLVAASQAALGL
T1 sequence (P02768 25-609): as above

Consider `O=C(O)[C@H]1O[C@@H](Oc2c(-c3ccc(O)c(O)c3)oc3cc(O)cc(O)c3c2=O)[C@H](O)[C@@H](O)[C@@H]1O`, for which, in data set [1], the “K ± S.D. (binding constant)” value is 5.36 ± 0.13 × 10^4 M^−1.

For the compound `O=c1cc(-c2ccc(O)c(O)c2)oc2cc(O[C@@H]3O[C@H](CO)[C@@H](O)[C@H](O)[C@H]3O)cc(O)c12` [Cynaroside], the “K ± S.D. (binding constant)” value in data set [1] is on record as 4.20 ± 0.25 × 10^4 M^−1.

As a reminder, the Kd is the constant that tells how readily two partners part at equilibrium. The low end stands for tighter binding, the high end for weaker binding. Compound `O=c1c(O[C@@H]2O[C@H](CO)[C@H](O)[C@H](O)[C@H]2O)c(-c2ccc(O)c(O)c2)oc2cc(O)cc(O)c12` [Hyperoside] had a Kd in data set [1] of 30.9 µM.

Compound `O=c1cc(-c2ccc(O)c(O)c2)oc2cc(O)c([C@@H]3O[C@H](CO)[C@@H](O)[C@H](O)[C@H]3O)c(O)c12` [Isoorientin] showed a Kd in data set [1] of 21.9 µM.

The compound `O=c1c(O[C@@H]2O[C@H](CO)[C@@H](O)[C@H](O)[C@H]2O)c(-c2ccc(O)c(O)c2)oc2cc(O)cc(O)c12` [Isoquercitrin] showed a Kd in data set [1] of 22.4 µM.

Take `O=c1c(O)c(-c2ccc(O)c(O)c2)oc2cc(O)cc(O)c12` [Quercetin]: the Absolute fluorescence intensity is 0,8077 in data set [2] (flavonoid 2,00 uM); 0,9540 in data set [2] (flavonoid 4,00 uM); 1,1279 in data set [2] (flavonoid 7,99 uM); 1,3080 in data set [2] (flavonoid 15,97 uM); 1,5574 in data set [2] (flavonoid 31,87 uM); 1,7477 in data set [2] (flavonoid 47,71 uM). Moreover, the Absolute fluorescence intensity was 2,0820 in data set [2] (flavonoid 63,49 uM); 2,2472 in data set [2] (flavonoid 79,21 uM); 2,4600 in data set [2] (flavonoid 98,77 uM); 14,1006 in data set [3] (flavonoid 2,00 uM, 0% occupied HSA); 14,3985 in data set [3] (flavonoid 2,00 uM, 22% occupied HSA); 15,6001 in data set [3] (flavonoid 2,00 uM, 38% occupied HSA). Also, the Absolute fluorescence intensity was 14,9774 in data set [3] (flavonoid 2,00 uM, 63% occupied HSA); 12,2760 in data set [3] (flavonoid 2,00 uM, 92% occupied HSA); 18,1924 in data set [3] (flavonoid 4,00 uM, 0% occupied HSA); 19,1798 in data set [3] (flavonoid 4,00 uM, 22% occupied HSA); 20,1073 in data set [3] (flavonoid 4,00 uM, 38% occupied HSA); 20,0687 in data set [3] (flavonoid 4,00 uM, 63% occupied HSA). Besides, the Absolute fluorescence intensity in data set [3] (flavonoid 4,00 uM, 92% occupied HSA) is listed as 16,0796; in data set [3] (flavonoid 6,00 uM, 0% occupied HSA), 21,7864; in data set [3] (flavonoid 6,00 uM, 22% occupied HSA), 22,8342; in data set [3] (flavonoid 6,00 uM, 38% occupied HSA), 23,2658; in data set [3] (flavonoid 6,00 uM, 63% occupied HSA), 23,0451; in data set [3] (flavonoid 6,00 uM, 92% occupied HSA), 18,9492. Further, the Absolute fluorescence intensity in data set [3] (flavonoid 7,99 uM, 0% occupied HSA) was 25,2012; in data set [3] (flavonoid 7,99 uM, 22% occupied HSA), 26,8970; in data set [3] (flavonoid 7,99 uM, 38% occupied HSA), 26,0412; in data set [3] (flavonoid 7,99 uM, 63% occupied HSA), 25,4057; in data set [3] (flavonoid 7,99 uM, 92% occupied HSA) it was 21,2821; in data set [3] (flavonoid 11,98 uM, 0% occupied HSA), 30,3340. In addition, the Absolute fluorescence intensity was 31,0510 in data set [3] (flavonoid 11,98 uM, 22% occupied HSA); 30,0611 in data set [3] (flavonoid 11,98 uM, 38% occupied HSA); 29,3172 in data set [3] (flavonoid 11,98 uM, 63% occupied HSA); 25,1156 in data set [3] (flavonoid 11,98 uM, 92% occupied HSA); 33,9655 in data set [3] (flavonoid 15,97 uM, 0% occupied HSA); 33,9646 in data set [3] (flavonoid 15,97 uM, 22% occupied HSA). Moreover, the Absolute fluorescence intensity in data set [3] (flavonoid 15,97 uM, 38% occupied HSA) is reported as 33,4123; in data set [3] (flavonoid 15,97 uM, 63% occupied HSA), 32,2916; in data set [3] (flavonoid 15,97 uM, 92% occupied HSA), 28,2109; in data set [3] (flavonoid 23,93 uM, 0% occupied HSA) it was 38,4893; in data set [3] (flavonoid 23,93 uM, 22% occupied HSA), 37,6942; in data set [3] (flavonoid 23,93 uM, 38% occupied HSA), 37,3757. The Absolute fluorescence intensity in data set [3] (flavonoid 23,93 uM, 63% occupied HSA) is recorded as 36,2415; in data set [3] (flavonoid 23,93 uM, 92% occupied HSA) it was 32,2392; in data set [3] (flavonoid 31,87 uM, 0% occupied HSA), 40,5581; in data set [3] (flavonoid 31,87 uM, 22% occupied HSA) it was 39,7022; in data set [3] (flavonoid 31,87 uM, 38% occupied HSA), 39,4192; in data set [3] (flavonoid 31,87 uM, 63% occupied HSA), 37,9878. Moreover, the Absolute fluorescence intensity is 34,7552 in data set [3] (flavonoid 31,87 uM, 92% occupied HSA); 41,9281 in data set [3] (flavonoid 39,80 uM, 0% occupied HSA); 41,0854 in data set [3] (flavonoid 39,80 uM, 22% occupied HSA); 41,0246 in data set [3] (flavonoid 39,80 uM, 38% occupied HSA); 39,4685 in data set [3] (flavonoid 39,80 uM, 63% occupied HSA); 36,6753 in data set [3] (flavonoid 39,80 uM, 92% occupied HSA). The Absolute fluorescence intensity in data set [3] (flavonoid 47,71 uM, 0% occupied HSA) was 41,6617; in data set [3] (flavonoid 47,71 uM, 22% occupied HSA), 41,5821; in data set [3] (flavonoid 47,71 uM, 38% occupied HSA) it was 41,3733; in data set [3] (flavonoid 47,71 uM, 63% occupied HSA), 40,4449; in data set [3] (flavonoid 47,71 uM, 92% occupied HSA), 37,3158; in data set [3] (flavonoid 63,49 uM, 0% occupied HSA) it was 40,9892. The Absolute fluorescence intensity in data set [3] (flavonoid 63,49 uM, 22% occupied HSA) is listed as 40,4660; in data set [3] (flavonoid 63,49 uM, 38% occupied HSA), 40,7086; in data set [3] (flavonoid 63,49 uM, 63% occupied HSA), 39,7702; in data set [3] (flavonoid 63,49 uM, 92% occupied HSA), 38,0617; in data set [3] (flavonoid 79,21 uM, 0% occupied HSA), 39,3310; in data set [3] (flavonoid 79,21 uM, 22% occupied HSA), 39,3997. The Absolute fluorescence intensity in data set [3] (flavonoid 79,21 uM, 38% occupied HSA) is given as 39,3849; in data set [3] (flavonoid 79,21 uM, 63% occupied HSA), 38,8686; in data set [3] (flavonoid 79,21 uM, 92% occupied HSA), 37,3045; in data set [3] (flavonoid 98,77 uM, 0% occupied HSA) it was 37,4633; in data set [3] (flavonoid 98,77 uM, 22% occupied HSA), 37,3641; in data set [3] (flavonoid 98,77 uM, 38% occupied HSA), 37,6865. The Absolute fluorescence intensity was 37,3324 in data set [3] (flavonoid 98,77 uM, 63% occupied HSA) and 36,3823 in data set [3] (flavonoid 98,77 uM, 92% occupied HSA). For the same compound, the affinity in data set [1], expressed as Kd, was 6.94 µM. The “Effect of warfarin on flavonoid Fmax (maximum fluorescence)” value in data set [3] (setting [6]) was “slightly decreased”. The “Effect of warfarin on flavonoid cmax (concentration needed to achieve Fmax)” value in data set [3] (setting [6]) is listed as “slight increase”. Moreover, in the data set with HSA [4], the “Relative STD-NMR signal intensity in presence of warfarin” value is ~ 40%.

Turning to `C[C@@H]1O[C@@H](OC[C@H]2O[C@@H](Oc3c(-c4ccc(O)c(O)c4)oc4cc(O)cc(O)c4c3=O)[C@H](O)[C@@H](O)[C@@H]2O)[C@H](O)[C@H](O)[C@H]1O` [Rutin], the Kd in data set [1] was 34.2 µM.

In the case of `CC(=O)CC(c1ccccc1)c1c(O)c2ccccc2oc1=O` (stereo not shown) [Warfarin], the “Fraction of warfarin in blood bound to HSA” value in the data set with HSA [5] is > 99%.
